Results on five compounds are retold here after patent publication US20020155562A1, “Glutathionylspermidine synthetase and processes for recovery and use thereof” (Leopold Flohe, priority 1996, published 2002).

Experiment [1] deals with glutathionylspermidine synthetase (GspS). Briefly: Kinetic analysis of GspS by HPLC determination of the product Gsp. The format is biochemical, C. fasciculata. The following applies: 25.0° C.; for Ki: pH 7.5; for Km: substrates of GspS, rapid equilibrium random-order mechanism, pH 7.5, 5 mM magnesium, read-out: limiting Km (dissociation constant of the quarternary complex). As to the method:
Production of starting material: C. fasciculata was grown in a medium previously described (27) in a 100-1 fermenter at 27° C. with continuous stirring (200 rpm) and aeration (0.1 vvm). Organisms were harvested in the late logarithmic growth phase by continous flow centrifugation. The pellet was resuspended with 100 mM HEPES buffer (pH 7.5) containing 1 mM DTT and 1 mM MgSO4. After centrifugation the cells were stored at −20° C. GspS, Assay: The assays were carried out at 25.0° C. in a volume of 0.9 ml containing 50 mM Bis-Tris-propane, 50 mM Tris, pH 7.5, 5 mM MgSO4, 1 mM EDTA, 5 mM DTT, 5 mM ATP, 10 mM GSH, and 10 mM spermidine (1). The assay for TS was carried out as described by Smith et al. (1). Aliquots were taken after 20 min. For thiol analysis a precolumn derivatization with the fluorescent thiol-specific reagent, monobromobimane (Calbiochem), was used as described previously (2). All samples for HPLC analysis were diluted four-fold with water. Separation and analytical conditions were as described previously (28). HPLC-analysis was performed with a Jasco-HPLC-system consisting of an autosampler (851-AS), a pump (PU-980), a ternary gradient unit (LG-980-02), and a highly sensitive fluorescence detector (FP-920), which enabled a precise analysis of the small product peak in the presence of numerous other and larger ones. An external standard (0.04 mM Gsp) was used for integration calibration of the samples.
All kinetic experiments were carried out at 25.0° C. in a volume of 0.9 ml containing 50 mM Bis-Tris-propane, 50 mM Tris, pH 7.5, 1 mM EDTA, 5 mM DTT and variable concentrations of ATP (0.10, 0.13, 0.18, 0.28, 0.66 mM ATP), GSH (0.36, 0.47, 0.66, 1.11, 3.57 mM GSH), and spermidine (0.36, 0.47, 0.66, 1.11, 3.57 mM spermidine), respectively. The enzymatic tests for kinetic studies except the ADP inhibition studies were performed in the presence of phosphoenolpyruvate (10 mM) and pyruvate kinase (0.5 units). A fixed magnesium concentration of 5 mM and a GspS content of 0.072 mg (0.923 μM) was used. Aliquots were taken at 15 min and 30 min. GspS activity was analyzed by product determination as described in example 1.

The subject of experiment [2] is glutathionylspermidine synthetase (GspS). Description: Malachite green colorimetric assay for liberation of inorganic phosphate. Type of experiment: biochemical, C. fasciculata. To be noted: ADP 0-10 mM at ATP 0.2-5 mM; competitive with respect to ATP. As for the experimental part:
FIG. 9. Malachite green colorimetric assay for liberation of inorganic phosphate. The malachite green calorimetric assay for liberation of inorganic phosphate (1) was used for fast detection of GspS activity.
The standard assay was carried out at 25.0° C. in a volume of 0.15 ml containing 50 mM Bis-Tris-propane, 50 mM Tris, pH 7.5, 5 mM MgSO4, 1 mM EDTA, 5 mM DTT, 5 mM ATP, 10 mM GSH, 10 mM spermidine, and GspS. After an incubation of 10 min the malachite green reagent was added for detection of GspS activity.
Concentration of ATP (see heading) and ADP (see table).
The liberation of inorganic phosphate from ATP can be easily visualized by malachite green (FIG. 9). The test is amply used to monitor ATP hydrolyzing activities and is correspondingly unspecific. […] This finding enabled us to use this fast and convenient test to measure specifically GspS activity which is accompanied by release of inorganic phosphate from ATP in the presence of glutathione, spermidine, and magnesium ions. The test can be easily adapted to mass screening as outlined below.

What is called Ki is a measure of affinity in units of concentration, obtained from inhibition or displacement. Read a high Ki as a looser hold on the target. As for `Nc1ncnc2c1ncn2[C@@H]1O[C@H](COP(=O)(O)OP(=O)(O)O)[C@@H](O)[C@H]1O` [ADP], in experiment [1] (inhibition of GspS, competitive with respect to ATP, no ATP regenerating system), the affinity, expressed as Ki, was 80 µM. The “inhibition of GspS” value in experiment [2] was “significantly inhibits”.

Usually Km stands for the substrate concentration at which the rate is half of its maximum. Regarding `N[C@@H](CCC(=O)N[C@@H](CS)C(=O)NCC(=O)O)C(=O)O` [GSH, glutathione], in experiment [1], the Km came out at 2510 ± 330 µM.

In experiment [1] (feed-back inhibition of GspS, competed by GSH), `N[C@@H](CCC(=O)N[C@@H](CS)C(=O)NCC(=O)NCCCCNCCCNC(=O)CNC(=O)[C@H](CS)NC(=O)CC[C@H](N)C(=O)O)C(=O)O` [TSH, N^1, N^8-bis(glutathionyl)spermidine] came in with a Ki of 480 µM.

Turning to `NCCCCNCCCN` [spermidine], the Km in experiment [1] is 470 ± 90 µM.

For adenosyltriphosphate [Mg^2+-ATP], in experiment [1], the Km is 250 ± 20 µM.
